In patent publication US7368254B2, “Lipid-based systems for targeting diagnostic agents” (Liplasome Pharma A/S, priority 2000, dated 2008):
Entries after “also recorded” stand apart in the source; their conditions may differ.

What was measured:
[1] = target: T1, Snake venom PLA2 (Agkistrodon piscivorus piscivorus) (Agkistrodon piscivorus piscivorus, UniProt P51972); test: PLA2-controlled release of calcein across non-hydrolysable D-O-SPC target membrane (carrier liposomes or micelles); format: biochemical; details: carrier liposomes 25 μM; 25 nM PLA2; 37° C.; FIG. 12a
T1 construct: Purified snake-venom phospholipase A2; from tissue
T1 sequence (P51972 1-123): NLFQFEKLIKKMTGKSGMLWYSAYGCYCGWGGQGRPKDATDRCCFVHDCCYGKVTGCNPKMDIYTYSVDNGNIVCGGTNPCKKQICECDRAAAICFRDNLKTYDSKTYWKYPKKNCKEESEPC
Protocol: Multilamellar model membrane target liposomes were made in the presence of fluorescent calcein in a self-quenching concentration of 20 mM by hydrating a film of 1,2-O-dioctadecyl-sn-glycero-3-phosphatidylcholines (D-O-SPC) in a HEPES buffer solution at pH=7.5 for one hour at 10° C. above the phase transition temperature (Tm=55° C.). […] The unilamellar liposomes were rapidly cooled to a temperature below the transition temperature, and the calcein-containing liposomes were separated from free calcein using a chromatographic column packed with Sephadex G-50. […] Calcein release from the target liposomes is determined by measuring the fluorescent intensity at 520 nm after excitation at 492 nm.
Unilamellar liposomes were made by extruding the multilamellar liposomes ten times through two stacked 100 nm polycarbonate filters.

[2] = i.v., 50 mg/kg
Protocol: Groups of mice (n=5/group; weight 18-22 g) were treated i.v. with buffer (PBS), ET-18-OCH3 (50 mg/kg), and liposomes composed of 1-O-DPPC with 5 mol % 1-O-DPPE-PEG2000 (68.7 and 137.5 mg/kg). 30 min after injection, 100 μl blood was collected into heparinised tubes directly from decapitated, CO2-anesthetised mice. The blood was centrifuged at 500×G for 10 min, and plasma was removed and stored at −20° C. until analysed.
25 μl plasma was mixed with 2,5 ml PBS or 2.5 ml 10% triton X-100.

[3] = tested on: human red blood cells (RBC); test: Hemolysis assay; details: 37° C., 20 hours, FIG. 6
Protocol: Briefly, each sample was serially diluted with phosphate buffered saline (PBS), and 0.5 ml of each dilute suspension was mixed with 0.5 ml washed human red blood cells (RBC) [4% in PBS (v/v)]. Sample and standard were placed in a 37° C. incubator and agitated for 20 hours. Tubes were centrifuged at low speed (2000×G) for 10 minutes and 200 μl of the supernatant was quantitated by absorbance at 550 nm. 100 percent hemolysis was defined as the maximum amount of hemolysis obtained from the detergent Triton X-100.
The lipids were hydrated in phosphate buffered saline (PBS). 1-O-octadecyl-2-O-methyl-sn-glycero-3-phosphocholine (ET-18-OCH3) in PBS was included in the assay as a reference.
Briefly, each sample was serially diluted with PBS, and 0.5 ml of each dilute suspension of 1-O-DPPC liposomes were mixed with 0.5 ml washed human red blood cells (RBC) [4% in PBS (v/v)]. For controls, 0.5 ml of the red blood cell suspension was mixed with either 0.5 ml buffer solution (negative hemolysis control) or 0.5 ml water (positive hemolysis control). Samples and standard were placed in a 37° C. incubator and agitated for 20 hours. Tubes were centrifuged at low speed (2000×G) for 10 minutes to form RBCs pellets. 200 μl of the supernatant was quantitated by absorbance at 550 nm using a Perkin-Elmer 320 scanning spectrophotometer. […]

extracellular PLA2 = test: Effect of cholesterol incorporated into liposomes on extracellular PLA2 activity (data not shown); format: biochemical
Description: Short-chain phospholipids, such as didecanoyl phosphatidylcholine (DCPC), activate extracellular PLA2.

[4] = Calcein release across target membrane on adding lyso-phospholipid and fatty acid, in the absence of PLA2; details: target membranes 25 μM; 39° C.; pH 7.5; FIG. 13
Protocol: Total release after 20 min of the fluorescent model drug and/or contrast agent calcein across the target membrane as a function of adding increasing amounts of lyso-palmitoyl phospholipid and palmitic acid, separately, and in a 1:1 mixture. The concentration of the target membranes is 25 μM in a HEPES buffer with pH=7.5 at a temperature of 39° C.
The experimental model system consists of bare liposomes, polymer-coated liposome carrier and a model target membrane. The carrier is a 100 nm unilamellar liposome made of dipalmitoyl phosphatidylcholine lipids (DPPC) with 2.5 mol % lipopolymer of the type dipalmitoyl phosphatidylethanolamine (DPPE)-PEG2000. The target membrane is another liposome made of 1,2-O-dioctadecyl-sn-glycero-phosphatidylcholine (D-O-SPC) which is a phospholipid where the acyl linkages of the stearoyl chains are ether bonds. In contrast to DPPC, D-O-SPC is inert towards PLA2-catalysed hydrolysis thereby mimicking the stability of an intact target cell membrane toward degradation by its own enzymes. […] The permeation of calcein across the D-O-SPC target membrane is subsequently monitored by the increase in fluorescence. […]

[5] = target: T2, phospholipase A2 (A. piscivorus piscivorus) (Agkistrodon piscivorus piscivorus, UniProt P51972); details: 0.150 mM micelles, 150 nM PLA2, 45° C.
T2 sequence (P51972 1-123): T1 sequence (P51972 1-123)
Protocol: The hydrolysis of micelles composed DSPE-PEG750 was followed by analysis of the amount of stearic acid generated. The catalytic reaction was initiated by adding 8.9 μL of a 42 μM PLA2 (150 nM) stock solution to 2.5 ml a thermostated micelle suspension of DSPE-PEG750 (0.150 mM) equilibrated at 45° C. for 600 seconds prior to addition of PLA2. The characteristic burst behaviour of PLA2 towards the micelles is signalled by a sudden increase in the intrinsic fluorescence from PLA2 at 340 nm after excitation at 285 nm followed by a concomitant decrease in the 90° light scattering from the lipid suspension (Hønger et al., Biochemistry 35, 9003-9006). Samples for HPLC analysis of the amount of stearic acid generated were taken before adding PLA2 and 100 sec after the observed lag-time. […] HPLC analysis was made using a 5 μm diol column, a mobile phase composed of chloroform/methanol/water (730:230:30, v/v) and an evaporative light scattering detector (see example 2).

Molecule: CCCCCCCCCC(=O)OC[C@H](COP(=O)([O-])OCC[N+](C)(C)C)OC(=O)CCCCCCCCC [DCPC, didecanoyl phosphatidylcholine]
- rate of calcein release across target membrane versus bare DPPC carriers [1]: very fast; also recorded: further augmentation of the rate of release

Molecule: CCCCCCCCCCCCCCCCCCOC[C@H](COP(=O)([O-])OCC[N+](C)(C)C)OC [ET-18-OCH3]
- outcome of treated mice (in words) [2]: died within the 30 minutes period
- hemolysis at low concentrations [3]: significant degree of hemolysis

Molecule: CC(C)CCC[C@@H](C)[C@H]1CC[C@H]2[C@@H]3CC=C4C[C@@H](O)CC[C@]4(C)[C@H]3CC[C@]12C [cholesterol]
- effect on extracellular PLA2 (extracellular PLA2; large amount (≈20 mol %) incorporated into liposomes): deactivated
- effect on extracellular PLA2 (extracellular PLA2; small amount (≈3 mol %)): activates

Molecule: CCCCCCCCCCCCCCCC(=O)O [fatty acid, palmitic acid]
- rate of calcein release across target membrane in the absence of PLA2 [4]: increased rate of calcein release

Molecule: di-octadecanoyl-sn-glycero-3-phosphoethanolamine-N-[methoxy(polyethylene glycol)-750 [DSPE-PEG750]
- percentage hydrolysis of DSPE-PEG750 to lyso-SPE-PEG750 and stearic acid ([5]; 100 sec after lag-time): 100%
- observed lag time [5]: 10 s
